Measured values taken from patent US10189836B2, “Therapeutic compounds, compositions and methods of use thereof” (Genentech, Inc., priority 2015, dated 2019).
Where two headings read alike, the source gives them in different places.

Legend:
[1] = target: isolated recombinant JAK1 kinase domain (Homo sapiens (Human), UniProt P23458); assay: JAK1 enzyme assay (Caliper LabChip, Ki); format: biochemical
[2] = target: isolated recombinant JAK2 kinase domain (Homo sapiens (Human), UniProt O60674); assay: JAK2 enzyme assay (Caliper LabChip, Ki); format: biochemical
isolated recombinant JAK2 kinase domain, sequence (O60674 849-1124): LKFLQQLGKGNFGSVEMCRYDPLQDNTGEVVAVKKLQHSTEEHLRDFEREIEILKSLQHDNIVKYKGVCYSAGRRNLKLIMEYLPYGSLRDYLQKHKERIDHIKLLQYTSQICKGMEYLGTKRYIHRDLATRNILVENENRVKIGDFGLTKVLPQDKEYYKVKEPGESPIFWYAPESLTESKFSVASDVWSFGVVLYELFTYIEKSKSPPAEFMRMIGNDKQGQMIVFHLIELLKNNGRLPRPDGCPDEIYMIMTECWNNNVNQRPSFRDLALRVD

[3] = isolated recombinant JAK1 kinase domain, 1.5 nM enzyme, ATP 25 μM
[4] = isolated recombinant JAK2 kinase domain, 0.2 nM enzyme, ATP 25 μM

isolated recombinant JAK1 kinase domain, sequence (P23458 875-1153): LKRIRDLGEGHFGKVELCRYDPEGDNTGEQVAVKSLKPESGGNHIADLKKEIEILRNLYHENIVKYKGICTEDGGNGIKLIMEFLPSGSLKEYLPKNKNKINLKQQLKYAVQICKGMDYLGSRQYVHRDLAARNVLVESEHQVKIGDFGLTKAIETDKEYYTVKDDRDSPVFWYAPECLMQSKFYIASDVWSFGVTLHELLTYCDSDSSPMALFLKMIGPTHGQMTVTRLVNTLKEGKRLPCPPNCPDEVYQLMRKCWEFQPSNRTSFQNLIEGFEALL

Row | SMILES | Ki [1, 3] [pM] | Ki [2, 4] [pM] | Ki [1] [pM] | Ki [2] [pM]
1 | O=C(Cn1cc(Nc2nc3c(N4CC5CCC(C4)N5C(=O)CCC(F)(F)F)cccn3n2)cn1)N1CCC(N2CCn3nccc3C2)CC1 [Example 179, 1-[3-[2-[[1-[2-[4-(6,7-dihydro-4H-pyrazolo[1,5-a]pyrazin-5-yl)-1-piperidyl]-2-oxo-ethyl]pyrazol-4-yl]amino]-[1,2,4]triazolo[1,5-a]pyridin-8-yl]-3,8-diazabicyclo[3.2.1]octan-8-yl]-4,4,4-trifluoro-butan-1-one; formic acid] | 1600 | 1300 | – | –
2 | CN1CCN(C(=O)Cn2cc(Nc3nc4c(N5CC6CCC(C5)N6S(=O)(=O)CCC(F)(F)F)cccn4n3)cn2)CC1 [Example 60, 1-(4-methylpiperazin-1-yl)-2-[4-[[8-[8-(3,3,3-trifluoropropylsulfonyl)-3,8-diazabicyclo[3.2.1]octan-3-yl]-[1,2,4]triazolo[1,5-a]pyridin-2-yl]amino]pyrazol-1-yl]ethanone] | 700 | 1500 | – | –
3 | CN1CCN(C(=O)Cn2cc(Nc3nc4c(N5C[C@H]6CC[C@@H](C5)[C@H]6OCc5ccccc5C#N)cccn4n3)cn2)CC1 [Example 142, 2-[[rac-(1S,5R)-3-[2-[[1-[2-(4-methylpiperazin-1-yl)-2-oxo-ethyl]pyrazol-4-yl]amino]-[1,2,4]triazolo[1,5-a]pyridin-8-yl]-3-azabicyclo[3.2.1]octan-8-yl]oxymethyl]benzonitrile] | 700 | 1700 | – | –
4 | CN1CCN(C(=O)Cn2cc(Nc3nc4c(N5CC6CCC(C5)C6=CC#N)cccn4n3)cn2)CC1 [Example 118, 2-[3-[2-[[1-[2-(4-methylpiperazin-1-yl)-2-oxo-ethyl]pyrazol-4-yl]amino]-[1,2,4]triazolo[1,5-a]pyridin-8-yl]-3-azabicyclo[3.2.1]octan-8-ylidene]acetonitrile] | 500 | 1500 | – | –
5 | CN1CCN(C(=O)Cn2cc(Nc3nc4c(C5=CC6CCC(C5)N6C(=O)OCC(F)(F)F)cccn4n3)cn2)CC1 (stereo not shown) [Example 7, 2,2,2-trifluoroethyl 3-[2-[[1-[2-(4-methylpiperazin-1-yl)-2-oxo-ethyl]pyrazol-4-yl]amino]-[1,2,4]triazolo[1,5-a]pyridin-8-yl]-8-azabicyclo[3.2.1]oct-3-ene-8-carboxylate] | – | – | 700 | 700
6 | CN1CCN(C(=O)Cn2cc(Nc3nc4c(N5C[C@H]6CC[C@@H](C5)[C@H]6OCc5ccc(F)nc5)cccn4n3)cn2)CC1 [Example 162, 1-(4-methylpiperazin-1-yl)-2-[4-[[8-[rac-(1S,5R)-8-[(6-fluoro-3-pyridyl)methoxy]-3-azabicyclo[3.2.1]octan-3-yl]-[1,2,4]triazolo[1,5-a]pyridin-2-yl]amino]pyrazol-1-yl]ethanone] | 600 | 600 | – | –
7 | CN1CCN(C(=O)Cn2cc(Nc3nc4c(N5CC6CCC(C5)N6C(=O)Cc5ccc(F)cc5)cccn4n3)cn2)CC1 [Example 66, 2-(4-fluorophenyl)-1-[3-[2-[[1-[2-(4-methylpiperazin-1-yl)-2-oxo-ethyl]pyrazol-4-yl]amino]-[1,2,4]triazolo[1,5-a]pyridin-8-yl]-3,8-diazabicyclo[3.2.1]octan-8-yl]ethanone] | 700 | 1400 | – | –
8 | CC(CC(=O)N1C2CCC1CN(c1cccn3nc(Nc4cnn(CC(=O)N5CCN(C)CC5)c4)nc13)C2)C(F)(F)F (stereo not shown) [Example 67, 4,4,4-trifluoro-3-methyl-1-[3-[2-[[1-[2-(4-methylpiperazin-1-yl)-2-oxo-ethyl]pyrazol-4-yl]amino]-[1,2,4]triazolo[1,5-a]pyridin-8-yl]-3,8-diazabicyclo[3.2.1]octan-8-yl]butan-1-one] | 800 | 1400 | – | –
9 | CN1CCN(C(=O)Cn2cc(Nc3nc4c(N5CC6CCC(C5)N6C(=O)N5CC(F)(F)C5)cccn4n3)cn2)CC1 [Example 173, 2-[4-[[8-[8-(3,3-difluoroazetidine-1-carbonyl)-3,8-diazabicyclo[3.2.1]octan-3-yl]-[1,2,4]triazolo[1,5-a]pyridin-2-yl]amino]pyrazol-1-yl]-1-(4-methylpiperazin-1-yl)ethanone] | 500 | 500 | – | –
10 | CN(C1CCN(C(=O)Cn2cc(Nc3nc4c(N5CC6CCC(C5)N6C(=O)CCC(F)(F)F)cccn4n3)cn2)CC1)C1COC1 [Example 11, 4,4,4-trifluoro-1-[3-[2-[[1-[2-[4-[methyl(oxetan-3-yl)amino]-1-piperidyl]-2-oxo-ethyl]pyrazol-4-yl]amino]-[1,2,4]triazolo[1,5-a]pyridin-8-yl]-3,8-diazabicyclo[3.2.1]octan-8-yl]butan-1-one] | 700 | 1400 | – | –
11 | CN1CCN(C(=O)Cn2cc(Nc3nc4c(N5CC6CCCC(C5)N6C(=O)N5CC(C(F)(F)F)C5)cccn4n3)cn2)CC1 [Example 122, 1-(4-methylpiperazin-1-yl)-2-[4-[[8-[9-[3-(trifluoromethyl)azetidine-1-carbonyl]-3,9-diazabicyclo[3.3.1]nonan-3-yl]-[1,2,4]triazolo[1,5-a]pyridin-2-yl]amino]pyrazol-1-yl]ethanone] | 400 | 300 | – | –
12 | CN1CCN(C(=O)Cn2cc(Nc3nc4c(N5CC6CCC(C5)N6C(=O)C5CCSCC5)cccn4n3)cn2)CC1 [Example 52, 1-(4-methylpiperazin-1-yl)-2-[4-[[8-[8-(tetrahydrothiopyran-4-carbonyl)-3,8-diazabicyclo[3.2.1]octan-3-yl]-[1,2,4]triazolo[1,5-a]pyridin-2-yl]amino]pyrazol-1-yl]ethanone] | 3100 | 5200 | – | –
13 | CN1CCN(C(=O)Cn2cc(Nc3nc4c(N5CC6CCC(C5)N6C(=O)C5CSC5)cccn4n3)cn2)CC1 [Example 3, 1-(4-methylpiperazin-1-yl)-2-[4-[[8-[8-(thietane-3-carbonyl)-3,8-diazabicyclo[3.2.1]octan-3-yl]-[1,2,4]triazolo[1,5-a]pyridin-2-yl]amino]pyrazol-1-yl]ethanone] | 500 | 600 | – | –
14 | CN1CCN(C(=O)Cn2cc(Nc3nc4c(N5CC6CCC(C5)N6c5ccc(Cl)cc5)cccn4n3)cn2)CC1 [Example 113, 2-[4-[[8-[8-(4-chlorophenyl)-3,8-diazabicyclo[3.2.1]octan-3-yl]-[1,2,4]triazolo[1,5-a]pyridin-2-yl]amino]pyrazol-1-yl]-1-(4-methylpiperazin-1-yl)ethanone] | 200 | 300 | – | –
15 | CN1CCN(C(=O)Cn2cc(Nc3nc4c(N5CC6CCC(C5)N6S(=O)(=O)Cc5ccc(Cl)cc5)cccn4n3)cn2)CC1 [Example 166, 2-[4-[[8-[8-[(4-chlorophenyl)methylsulfonyl]-3,8-diazabicyclo[3.2.1]octan-3-yl]-[1,2,4]triazolo[1,5-a]pyridin-2-yl]amino]pyrazol-1-yl]-1-(4-methylpiperazin-1-yl)ethanone] | 700 | 900 | – | –
16 | CC(C(=O)N1CCN(C)CC1)n1cc(Nc2nc3c(N4CC5CCC(C4)N5C(=O)C4CC(C(F)(F)F)C4)cccn3n2)cn1 (stereo not shown) [Example 126, 1-(4-methylpiperazin-1-yl)-2-[4-[[8-[8-(3-(trifluoromethyl)-cyclobutanecarbonyl]-3,8-diazabicyclo[3.2.1]octan-3-yl]-[1,2,4]triazolo[1,5-a]pyridin-2-yl]amino]pyrazol-1-yl]propan-1-one] | 2500 | 1600 | – | –
17 | O=C(Cn1cc(Nc2nc3c(N4CC5CCC(C4)N5C(=O)[C@H]4C[C@@H](C(F)(F)F)C4)cccn3n2)cn1)N1CCN(C2CSC2)CC1 [Example 82] | 400 | 300 | – | –
